The results in this text go back to patent US7235263B2, “Processes for controlling microbial organic compound production” (Kimberly-Clark Worldwide, Inc., priority 2001, dated 2007).

For assay [1], the system named is interleukin-1 alpha (IL-1a). Briefly: IL-1a release by EPIOCULAR skin culture challenged with sample. Type of assay: cell-based, human. The conditions noted are these: Table 5, 6 hours. An excerpt:
In order to evaluate the amount of skin irritation by various samples prepared in the Examples, a human skin culture was selected to model the response of the human epidermis to treated and untreated bacterial metabolized urine:TSB mixture. The tissue model selected was an EPIOCULAR Tissue Model (OCL-200 propagated without hydrocortisone), and was purchased from MatTek Corporation (Ashland, Mass.). This model consists of normal, human-derived epidermal keratinocytes, which have been cultured to form a stratified, squamous epithelium similar to that found in the cornea. The epidermal cells, which are cultured on specially prepared cell culture inserts using a serum free medium, differentiate to form a multi-layered structures which closely parallel the corneal epithelium. Experiments using this skin culture were conducted in six parallel wells. Each well contained one milliliter of pre-warmed media that was the same as the model skin culture media. The plates were then incubated in a 37° C., 5% carbon dioxide atmosphere for thirty minutes. […] The response of the skin culture to test the compositions/control and the insult solution is determined by measuring the amount of interleukin-1 alpha (IL-1a) and/or interleukin-8 (IL-8). IL-1a and IL-8 were quantified using an Interleukin-1 alpha or Interleukin-8 Quantikine Kit available from R&D Systems (Minneapolis, Minn.).

In assay [2] the test system is Proteus mirabilis (ATCC 29906). Briefly: Bacterial yield of facultatively grown Proteus mirabilis in urine:TSB (from optical density). Type of assay: cell-based. The conditions noted are these: for Bacterial Yields: facultative. How it is done: Proteus mirabilis (ATCC 29906) were recovered from frozen state by growing the appropriate bacterial coated MicroBank Bead (Pro Lab, Austin Tex.) in 10 mL trypticase soy broth (TSB, Difco, Ann Arbor, Mich.) in a 15 mL sterile loosely tightened screw capped conical tube overnight at 37° C. The tube was held stationary. (E. coli (ATCC 8739), utilized in Example 6 herein, was recovered using the same procedure described herein for Proteus mirabilis). Upon observation of turbidity, the bacterial suspension was checked for purity by isolation plate and Gram stain. Once determined that the isolate was Proteus mirabilis (or E. coli in Example 6), a colony from the isolation plate was transferred to 10 mL of TSB in a 15 mL sterile screw capped conical tube and incubated overnight at 37° C. under facultative conditions. Samples of bacterial suspension resulting from this overnight TSB culture were used to initiate all experiments utilizing Proteus mirabilis bacteria (or E. coli in Example 6).
Proteus mirabilis was taken from a TSB culture (described in (1) above) and grown under various conditions for use in the Examples. For bacteria to be grown under aerobic conditions, 50 microliters of Proteus mirabilis was taken from a TSB culture prepared as described above and inoculated into a 50 mL volume of a freshly made 9:1 (by volume) pooled adult female urine:TSB mixture into a 250 mL shake flask. This mixture was rotated at 250 rpm at 37° C. overnight to grow the bacteria. For bacteria to be grown under facultative conditions, 10 microliters of Proteus mirabilis was taken from a TSB culture prepared as described above and inoculated into a 10 mL volume of a freshly made 9:1 (by volume) pooled adult female urine:TSB mixture into a 15 mL tube. The tube was loosely fitted with a screw cap, and held stationary at 37° C. overnight to grow the bacteria. For bacteria to be grown under anaerobic conditions, 10 microliters of Proteus mirabilis was taken from a TSB culture prepared as described above and inoculated into a 10 mL volume of a freshly made 9:1 (by volume) pooled adult female urine:TSB mixture into a 15 mL conical tube. The tube was purged with nitrogen and a screw cap tightly closed, and then was held stationary overnight at 37° C. to grow the bacteria.
In this Example, five samples were prepared and analyzed to determine: (1) Bacterial Yield (CFU/mL) calculated from optical density; (3) Percent viability of EPIOCULAR; and (4) EPIOCULAR IL-8. The samples included: (1) Deionized Water; (2) A urine:TSB mixture (9:1 by volume) as described above; (3) A urine:TSB mixture containing Proteus mirabilis bacteria grown under aerobic conditions as described above; (4) A urine:TSB mixture containing Proteus mirabilis bacteria grown under facultative conditions as described above; and (5) A urine:TSB mixture containing Proteus mirabilis bacteria grown under anaerobic conditions as described above.
In this Example, six different samples were prepared for analysis. The first sample comprised a urine:TSB mixture that was prepared in the same manner as that described in Example 1. […] The tube was loosely fitted with a screw cap, and held stationary at 37° C. overnight to grow the bacteria. […] The fifth sample comprising urine:TSB:Proteus mirabilis (facultatively grown) was prepared in the same manner as that described in Example 1.

The subject of the next assay is Proteus mirabilis. As to the kind of experiment: Growth of aerobically cultivated Proteus mirabilis in urine:TSB, microtiter serial dilution, optical density. Type of assay: cell-based. Particulars: for optical density (bacterial cell growth): 48 hours at 37° C., aerobic, listed as 7 Hr. On the procedure: Proteus mirabilis was cultured in TSB as described in Example 1 and transferred to a urine:TSB mixture (9:1) and incubated under aerobic conditions as described in Example 1. […] In a 96-well microtiter plate with a lid, 150 microliters of each 10% solution was introduced into the first and second columns of the wells. Using a multi-channel pipette, 150 microliters of urine:TSB mixture was introduced into each well except the first column. Beginning at the second column of wells, serial dilutions were made by removing 150 microliters from the second column and transferring it to the third column. The mixture was mixed by pipetting up and down three times. The serial dilutions continued across each column of the plate and, after column 11, 150 microliters was discarded leaving column 12 as the 0% solution. Each well was then inoculated with 1 microliter of Proteus mirabilis, except for the negative control rows. One to three drops of anti-fogging solution was place on the plate lids with a cotton applicator, and allowed to air dry. The mixtures were incubated for 48 hours at 37° C. under aerobic conditions. After incubation of the samples, each was analyzed for bacterial cell growth utilizing the optical density procedure as set forth in Example 1.

With mannitol peroxide, the IL-1a in assay [1] (facultative Proteus mirabilis grown with 5% mannitol peroxide) amounted to 48.12 ± 8.93 pg/mL; in assay [1] (facultative Proteus mirabilis grown with 10% mannitol peroxide), 15.26 ± 12.80 pg/mL. Moreover, in assay [2] (5% and 10% mannitol peroxide, facultative Proteus mirabilis (Table 4)), the “impact on the growth of the cells” value is “very little, if any, impact on the growth of the cells”. For the same substance, the “Bacterial Yields” value in assay [2] (Table 3, 5% (w/v) mannitol peroxide, urine:TSB, 37° C. overnight) stood at 1.30E+9 CFU/mL; in assay [2] (Table 3, 10% mannitol peroxide, urine:TSB, 37° C. overnight), 8.20E+8 CFU/mL; in assay [2] (Table 4, 5% mannitol peroxide) it was 1.30E+9 CFU/mL; in assay [2] (Table 4, 10% mannitol peroxide), 8.2E+8 CFU/mL; in assay [2] (Table 5, 5% (w/v) mannitol peroxide), 1.30E+9 CFU/mL; in assay [2] (Table 5, 10% (w/v) mannitol peroxide), 8.20E+8 CFU/mL. Moreover, the “Bacterial Yields” value in assay [2] (Table 7, 5% mannitol peroxide) is 8.93E+8 CFU/mL. The “optical density (bacterial cell growth)” value came out at 0.98 in the assay with Proteus mirabilis (0.0097% in urine:TSB); 0.98 in the assay on Proteus mirabilis (0.0195% in urine:TSB); 0.95 with Proteus mirabilis (0.0391% in urine:TSB); 0.98 in the assay with Proteus mirabilis (0.0785% in urine:TSB); 1.00 in the assay with Proteus mirabilis (0.156% in urine:TSB); 0.96 in the assay with Proteus mirabilis (0.313% in urine:TSB). For the same substance, the “optical density (bacterial cell growth)” value in the assay with Proteus mirabilis (0.625% in urine:TSB) came out at 0.99; in the assay with Proteus mirabilis (1.25% in urine:TSB) it was 0.98; in the assay with Proteus mirabilis (2.5% in urine:TSB), 0.97; with Proteus mirabilis (5% in urine:TSB), 0.90; in the assay with Proteus mirabilis (10% in urine:TSB) it was 0.82. The “effect on the growth of the bacteria” value in the assay with Proteus mirabilis (heated at least about 7 hours at about 97° C. during synthesis, even at elevated concentrations) is “little effect on the growth of the bacteria”.
